Assay results published in patent US20240108740A1, “THERAPEUTIC COMPOSITIONS INCLUDING SPN10 AND USES THEREOF” (Stealth BioTherapeutics Inc., priority 2022, published 2024).
Residues, ends and D or L forms follow the SMILES beside them.

How the values were obtained:
Hairless mice = experiment: Example 50: sunburn by excessive UV radiation; type: in vivo, mouse; details: intravenously twice per day for seven days
Source text: Hairless mice, with skin characteristics similar to humans, will be exposed to excessive UV radiation over the course of a week. […] Parameters measured will include wound contraction, re-epithelialization distance, cellularity, and collagen organization. Ki67 proliferation antigen will be assessed, as well as TUNEL and caspase-3 activation. Blood flow will be measured by […] mapping.

high-fat fed rats = experiment: Example 34: insulin resistance in rats fed a high-fat diet; type: in vivo, rat
Procedure: On the day of testing, food will be removed 10 hours prior to administration of a 2 g/kg glucose solution via oral gavage. Glucose levels will be determined on whole blood samples (Lifescan, Milpitas, CA, U.S.A.). Serum insulin levels will be determined using a rat/mouse ELISA kit (Linco Research, St. Charles, MO, U.S.A.). Fasting data will be used to determine homeostatic model assessment (HOMA)-calculated as fasting insulin (mU/mL)×fasting glucose (mM)/22.5.
To further assess insulin sensitivity, the phosphorylation state of the insulin signaling protein Akt in skeletal muscle will be measured 1) following a 10 hour fast, and 2) 1 hour after receiving an oral glucose load. It is anticipated that in response to glucose ingestion, Akt phosphorylation will increase in skeletal muscle of standard chow-fed controls but will remain essentially unchanged in high-fat fed rats, confirming the presence of insulin resistance at the level of insulin signaling.

Gαq mice = experiment: Gαq overexpression-induced heart failure; type: in vivo, mouse; details: administered from 12 to 16 weeks of age
Source text: It is anticipated that peptide conjugates, aromatic-cationic peptides or SPN10(s) (with or without aromatic-cationic peptides) will partially rescue Gαq overexpression-induced heart failure. Gαq protein is coupled to receptors for catecholamines and Ang II, all of which are known to be key mediators in hypertensive cardiovascular diseases. To extend these observations to a model of chronic catecholamine/Ang II stimulation, a genetic mouse model with cardiac specific overexpression of Gαq will be used, which causes heart failure in mice by 14-16 weeks of age. The Gαq mice in this study will have impairment of systolic function at 16 weeks age, which will be shown by a substantial decline in FS, with enlargement of the LV chamber, impairment of diastolic function indicated by decreased Ea/Aa, and worsening of myocardial performance index (MPI).

SH-SY5Y cells = experiment: Example 27: apoptosis caused by oxidative stress (Hoechst 33342); type: cell-based; details: 0.025 mM t-BHP, 24 hours
Procedure: SH-SY5Y cells will be grown in 96-well plates and treated with t-BHP (0.025 mM) alone or in the presence of peptide conjugates, aromatic-cationic peptides, or SPN10(s) with or without aromatic-cationic peptides at 37° C. for 24 hours. All treatments will be carried out in quadruplicate. Cells will then be stained with 2 mg/mL Hoechst 33342 for 20 minutes, fixed with 4% paraformaldehyde, and imaged using a Zeiss fluorescent microscope (Axiovert 200M) equipped with the Zeiss Acroplan 20× objective. Nuclear morphology will be evaluated using an excitation wavelength of […] and a longpass filter of 400 nm for emission. All images will be processed and analyzed using MetaMorph software (Universal Imaging Corp., West Chester, PA, U.S.A.). Uniformly stained nuclei will be scored as healthy, viable neurons. Cells with condensed or fragmented nuclei will be scored as apoptotic.

[1] = system: CD36 knockout (CD36 KO) mice; experiment: Example 3: acute cerebral ischemia in CD36 knockout mice; type: in vivo, mouse
Procedure: CD36 knockout (CD36 KO) mice will be subjected to acute cerebral ischemia as described in Example 2. CD36 KO mice will be given either saline vehicle (Veh) (i.p., n=5), peptide conjugates (2 mg/kg or 5 mg/kg, i.p., n=6), aromatic-cationic peptides (e.g., an equivalent molar dose of aromatic-cationic peptide based on the concentration of the aromatic-cationic peptide administered in the peptide conjugate treatment group), SPN10(s) (e.g., an equivalent molar dose of SPN10 based on the concentration of SPN10 administered in the peptide conjugate treatment group), or SPN10(s) in combination with aromatic-cationic peptides (e.g., an equivalent molar dose of SPN10 based on the concentration of SPN10 administered in the peptide conjugate treatment group and an equivalent molar dose of aromatic-cationic peptide based on the concentration of aromatic-cationic peptide administered in the peptide conjugate treatment group) at 0, 6, 24 and 48 hours following a 30 minute period of ischemia. Infarct volume and hemispheric swelling in CD36 KO mice are expected to be similar in subjects receiving saline, SPN10(s) (alone or in combination with aromatic-cationic peptides), aromatic-cationic peptides and peptide conjugates.

SMILES: N=C(N)NCCC[C@H](NC(=O)[C@@H](N)Cc1c[nH]c2ccccc12)C(=O)N[C@@H](Cc1c[nH]c2ccccc12)C(=O)N[C@@H](CCCCN)C(N)=O [SPN10, H-L-Trp-L-Arg-L-Trp-L-Lys-NH2] (H-WRWK-NH2)
- wound healing and progression of sunburn injuries (Hairless mice): accelerate wound healing and attenuate the progression of sunburn injuries
- blood glucose and insulin responses to the oral glucose challenge (high-fat fed rats; 2 g/kg glucose, six weeks high-fat diet): normalize blood glucose and insulin responses
- Akt phosphorylation in skeletal muscle in response to glucose ingestion (high-fat fed rats; rat, in vivo): increase Akt phosphorylation
- development of insulin resistance (HOMA) (high-fat fed rats; rat, in vivo): suppress the development of insulin resistance
- LV chamber enlargement (Gαq mice): slightly reduced
- systolic function and myocardial performance (Gαq mice): significantly ameliorate systolic function and improve myocardial performance
- apoptosis induced by t-BHP (SH-SY5Y cells): prevent SH-SY5Y cell apoptosis
- infarct volume and hemispheric swelling in CD36 KO mice ([1]; compared with saline): similar
- GSH depletion in the ipsilateral cortex in CD36 KO mice ([1]; mouse, in vivo): fail to further prevent GSH depletion
